{"source": "patent US20240116939A1", "about": "“CHIRAL OR RACEMIC PYRIMIDINE-FUSED DIAZEPINONE DERIVATIVES, PREPARATION METHOD, AND APPLICATION THEREOF” (SUN YAT-SEN UNIVERSITY, priority 2021, published 2024)", "key": {"PC12 cells [1]": {"test_system": "PC12 cells", "assay": "MTT cell viability of corticosterone (CORT)-induced PC12 cells (in vitro depression model)", "details": "for viability at 0.625 µM: PC-12, read-out: Cell viability (%), PC12 cells pretreated with 600 μM corticosterone 24 h; for viability at 0.625 µM / Culture time needed to exert effect on cell survival / Cell viability (%): drug 0.625 uM; for viability at 0.625 µM / Cell viability (%): 24 h culture, average of three independent experiments; for viability at 0.625 µM / Effect on death rate of cells caused by CORT (cell survival rate) / Cell viability (%): MTT; for Effect on death rate of cells caused by CORT (cell survival rate): 0.625-20 uM at 12 h, 0.625 uM at 12, 24, 48 h, A and B of FIG. 2; for Culture time needed to exert effect on cell survival: B of FIG. 2; for Cell viability (%): PC12 cells pretreated with 600 μM corticosterone 24 h", "method": "PC12 cells are purchased from Procell Life Science & Technology Co., Ltd. (Wuhan, China). All cell culture reagents are purchased from Life Technologies (Grand Island, Nebraska, USA). Cells are cultured in Dulbecco's modified Eagle's medium (Gibco, USA) including 10% fetal calf serum (Gibco, USA) at 37° C. in an incubator including 5% CO2.\nCorticosterone (CORT)-induced PC12 cells are usually used to establish the depression model in vitro.\nCell viability is measured by using MTT [3-(4,5-dimethyl-2-thiazolyl)-2,5-diphenyl-2H-tetrazolium bromide]."}, "GR": {"test_system": "GR", "assay": "Western blotting of GR in CORT-treated PC12 cells", "format": "cell-based", "details": "Western blot; 0.625 uM; A and B of FIG. 3", "method": "(§1) PC12 cells are lysed in RIPA lysis solution including 1% phenylmethylsulfonyl fluoride (PMSF) on ice for 30 minutes, the supernatant solution is collected and centrifuged, and the protein concentration of the supernatant solution is measured by a BCA assay kit (Beyotime, Shanghai). Protein samples are loaded onto 10% SDS-polyacrylamide gel electrophoresis and then further transferred to PVDF membrane (Millipore, MA, USA). The PVDF membrane is blocked with 5% non-fat milk and then incubated with a single primary antibody at 4° C. overnight. After washing with Tris-buffered saline containing Tween-20 (0.1%) (TBST), the PVDF membrane is incubated with secondary antibodies at room temperature. The PVDF membrane is analyzed by ECL reagents (Beyotime, Shanghai) and a BIO-RAD ChemiDoc XRS system. Protein band intensity is performed by Image J software (The National Institutes of Health, Bethesda, MD, USA)."}, "cofilin-1": {"test_system": "cofilin-1", "assay": "Western blotting of cofilin-1 in CORT-treated PC12 cells", "format": "cell-based", "details": "Western blot; 0.625 uM; A and B of FIG. 3", "method": "as §1"}, "NF-κB": {"test_system": "NF-κB", "assay": "Western blotting of NF-κB in CORT-treated PC12 cells", "format": "cell-based", "details": "Western blot; 0.625 uM; A and B of FIG. 3", "method": "as §1"}, "PC12 cells [2]": {"test_system": "PC12 cells", "assay": "Hoechst and PI staining of PC12 cell apoptosis", "format": "cell-based", "details": "drug 1.0 uM, 48 hours", "method": "PC12 cell apoptosis is detected by Hoechst and PI staining. Hoechst can bind to cell nucleus of living cells, while PI (propidium iodide) can bind to the nucleuses of dead cells. The PC12 cells are plated in 12-well plates, and after being treated with drugs for 48 hours, the PC12 cells are stained with the nuclear dye Hoechst. The PC12 cells are washed twice with PBS and continued to be incubated with 10 mg/L Hoechst in the incubator for 20 min, For PI staining, the PC12 cells are incubated with a working solution including PI (final concentration 1 μg/mL) at room temperature for 10 min […] The PC12 cells are observed and photographed by a fluorescence microscope (Zeiss, Germany), and the results are shown in FIGS. 2 and 3. Blue fluorescence (white background) represents living cells, and red fluorescence (black background) represents dead cells."}}, "data": [{"molecule": "C=C[C@@H]1CN(Cc2ccccc2)C(=O)c2cnc(OC)nc2N1c1ccccc1", "note": "[(R)-I-9, (R)-6-benzyl-2methoxy-9-phenyl-8-vinyl-6,7,8,9-tetrahydro-5H-pyrimido[4,5-e][1,4]diazepin-5-one]", "values": [{"measurement": "viability at 0.625 µM", "setting": "PC12 cells [1]; Rattus norvegicus", "value": "85.4 ± 2.9", "unit": "%"}, {"measurement": "Expression of GR", "setting": "GR", "value": "promote the expression of GR"}, {"measurement": "Overexpression of cofilin-1", "setting": "cofilin-1", "value": "inhibit the overexpression"}, {"measurement": "Overexpression of NF-κB", "setting": "NF-κB", "value": "inhibit the overexpression"}, {"measurement": "PC12 cell death / apoptosis caused by corticosterone (blue and red fluorescence number)", "setting": "PC12 cells [2]", "value": "can reverse the massive apoptosis of the PC12 cells caused by corticosterone"}]}, {"molecule": "C=C[C@H]1CN(Cc2ccccc2)C(=O)c2cnc(C)nc2N1c1ccccc1", "note": "[(S)-I-10, (S)-6-benzyl-2-methyl-9-phenyl-8-vinyl-6,7,8,9-tetrahydro-5H-pyrimido[4,5-e][1,4]diazepin-5-one]", "values": [{"measurement": "viability at 0.625 µM", "setting": "PC12 cells [1]; Rattus norvegicus", "value": "97.8 ± 3.4", "unit": "%"}, {"measurement": "PC12 cell death / apoptosis caused by corticosterone (blue and red fluorescence number)", "setting": "PC12 cells [2]", "value": "higher number of blue fluorescence than (R)-I-9"}]}, {"molecule": "CNCCC(Oc1ccc(C(F)(F)F)cc1)c1ccccc1", "note": "(stereo not drawn) [fluoxetine, reference compound]", "values": [{"measurement": "Effect on death rate of cells caused by CORT (cell survival rate)", "setting": "PC12 cells [1]", "value": "can effectively reduce the death rate of cells caused by CORT"}, {"measurement": "viability at 0.625 µM", "setting": "PC12 cells [1]; Rattus norvegicus", "value": "76.8 ± 6.4", "unit": "%"}, {"measurement": "Culture time needed to exert effect on cell survival", "setting": "PC12 cells [1]", "value": 48, "unit": "h"}, {"measurement": "Expression of GR", "setting": "GR", "value": "promote the expression of GR"}, {"measurement": "Overexpression of cofilin-1", "setting": "cofilin-1", "value": "inhibit the overexpression"}, {"measurement": "PC12 cell death / apoptosis caused by corticosterone (blue and red fluorescence number)", "setting": "PC12 cells [2]", "value": "can reduce cell death"}]}, {"molecule": "C=C[C@@H]1CN(Cc2ccccc2)C(=O)c2cnc(N3CCOCC3)nc2N1Cc1ccccc1", "note": "[(R)-I-8, (R)-6,9-dibenzyl-2-morpholinyl-8-vinyl-6,7,8,9-tetrahydro-5H-pyrimido[4,5-e][1.4]diazepine-5-one]", "values": [{"measurement": "Cell viability (%)", "setting": "PC12 cells [1]", "value": "82.0 ± 2.0", "unit": "%"}]}, {"molecule": "C[C@]12C[C@H](O)[C@H]3[C@@H](CCC4=CC(=O)CC[C@@]43C)[C@@H]1CC[C@@H]2C(=O)CO", "note": "[CORT, corticosterone, reference compound]", "values": [{"measurement": "Cell viability (%) with corticosterone alone", "setting": "PC12 cells [1]; PC12 cells, 600 μM corticosterone, 24 hours, no drug (model group)", "value": "60.5 ± 3.6", "unit": "%"}, {"measurement": "viability at 600 µM", "setting": "PC12 cells [1]; Rattus norvegicus, PC-12, 24 h, read-out: Cell viability (%) with corticosterone alone, PC12 cells, 600 μM corticosterone, 24 hours, no drug (model group)", "value": 60, "unit": "%"}]}, {"molecule": "C=C[C@@H]1CN(Cc2ccccc2)C(=O)c2cnc(-c3ccccc3)nc2N1c1ccccc1", "note": "[(R)-I-13, (R)-6-benzyl-2,9-diphenyl-8-vinyl-6,7,8,9-tetrahydro-5H-pyrimido[4,5-e][1,4]diazepine-5-one]", "values": [{"measurement": "viability at 0.625 µM", "setting": "PC12 cells [1]; Rattus norvegicus", "value": "81.9 ± 4.5", "unit": "%"}, {"measurement": "melting point", "value": "212.7 to 213.6", "unit": "°C"}]}, {"molecule": "C=C[C@H]1CN(Cc2ccccc2)C(=O)c2cnc(N3CCN(C)CC3)nc2N1c1ccccc1", "note": "[(S)-I-11, (S)-6-benzyl-2-(4-methyl-1-piperazinyl)-9-phenyl-8-vinyl-6,7,8,9-tetrahydro-5H-pyrimido[4,5-e]diazepine-5-one]", "values": [{"measurement": "Effect on death rate of cells caused by CORT (cell survival rate)", "setting": "PC12 cells [1]", "value": "can effectively reduce the death rate of cells caused by CORT"}, {"measurement": "Culture time needed to exert effect on cell survival", "setting": "PC12 cells [1]", "value": 12, "unit": "h"}, {"measurement": "PC12 cell death / apoptosis caused by corticosterone (blue and red fluorescence number)", "setting": "PC12 cells [2]", "value": "can reduce cell death"}]}, {"molecule": "C=C[C@@H]1CN(Cc2ccccc2)C(=O)c2cnc(Nc3ccccc3)nc2N1c1ccccc1", "note": "[(R)-I-18, (R)-6-benzyl-9-phenyl-2-anilino-8-vinyl-6,7,8,9-tetrahydro-5H-pyrimido[4,5-e][1,4]diazepine-5-one]", "values": [{"measurement": "viability at 0.625 µM", "setting": "PC12 cells [1]; Rattus norvegicus", "value": "75.2 ± 4.4", "unit": "%"}, {"measurement": "melting point", "value": "232.1 to 232.3", "unit": "°C"}]}, {"molecule": "C=C[C@H]1CN(Cc2ccccc2)C(=O)c2cnc(N3CCOCC3)nc2N1CCC", "note": "[(S)-I-5, (S)-6-benzyl-2-morpholino-9-propyl-8-vinyl-6,7,8,9-tetrahydro-5H-pyrimido[4,5-e][1,4]diazepine-5-one]", "values": [{"measurement": "viability at 0.625 µM", "setting": "PC12 cells [1]; Rattus norvegicus", "value": "89.4 ± 2.9", "unit": "%"}]}, {"molecule": "C=C[C@@H]1CN(Cc2ccccc2)C(=O)c2cnc(N3CCOCC3)nc2N1c1ccccc1", "note": "[(R)-I-1, (R)-6-benzyl-2-morpholino-9-phenyl-8-vinyl-6,7,8,9-tetrahydro-5H-pyrimido [4,5-e][1,4]diazapine-5-one]", "values": [{"measurement": "Cell viability (%)", "setting": "PC12 cells [1]", "value": "82.8 ± 2.5", "unit": "%"}]}, {"molecule": "C=C[C@H]1CN(Cc2ccccc2)C(=O)c2cnc(N3CCCC3)nc2N1c1ccccc1", "note": "[(S)-I-12, (S)6-benzyl-9-phenyl-2-(1-tetrahydropyrrolyl)-8-vinyl-6,7,8,9-tetrahydro-5H-pyrimido[4,5-e][1,4]diazepin-5-one]", "values": [{"measurement": "viability at 0.625 µM", "setting": "PC12 cells [1]; Rattus norvegicus", "value": "98.6 ± 3.1", "unit": "%"}, {"measurement": "melting point", "value": "153.8 to 154.3", "unit": "°C"}]}, {"molecule": "C=C[C@@H]1CN(Cc2ccccc2)C(=O)c2cnc(-c3ccco3)nc2N1c1ccccc1", "note": "[Compound I-16, (R)-6-benzyl-2-(2-furyl)-9-phenyl-8-vinyl-6,7,8,9-tetrahydro-5H-pyrimido[4,5-e][1,4]diazepin-5-one]", "values": [{"measurement": "melting point", "value": "178.5 to 178.6", "unit": "°C"}]}, {"molecule": "C=C[C@H]1CN(Cc2ccccc2)C(=O)c2cnc(-c3cccc4ccccc34)nc2N1c1ccccc1", "note": "[(S)-I-14, (S)-6-benzyl-2-(1-naphthyl)-9-phenyl-8-vinyl-6,7,8,9-tetrahydro-5H-pyrimido[4,5-e][1,4]diazepin-5-one]", "values": [{"measurement": "Survival rate of PC12 cells, comparison of chiral configurations", "setting": "PC12 cells [1]; 0.625 uM, B, C and D of FIG. 4", "value": "can increase the survival rate better than their corresponding racemates"}, {"measurement": "viability at 0.625 µM", "setting": "PC12 cells [1]; Rattus norvegicus", "value": "88.1 ± 4.7", "unit": "%"}, {"measurement": "melting point", "value": "227.2 to 227.4", "unit": "°C"}]}, {"molecule": "C=C[C@H]1CN(Cc2ccccc2)C(=O)c2cnc(-c3cnccc3OC)nc2N1c1ccccc1", "note": "[(S)-I-17, (S)-6-benzyl-2-(4-methoxy-3-pyridyl)-9-phenyl-8-vinyl-6,7,8,9-tetrahydro-5H-pyrimido[4,5-e][1,4]diazepin-5-one]", "values": [{"measurement": "viability at 0.625 µM", "setting": "PC12 cells [1]; Rattus norvegicus", "value": "96.9 ± 2.7", "unit": "%"}, {"measurement": "Expression of GR", "setting": "GR", "value": "promote the expression of GR"}, {"measurement": "Overexpression of cofilin-1", "setting": "cofilin-1", "value": "inhibit the overexpression"}, {"measurement": "Overexpression of NF-κB", "setting": "NF-κB", "value": "inhibit the overexpression"}, {"measurement": "PC12 cell death / apoptosis caused by corticosterone (blue and red fluorescence number)", "setting": "PC12 cells [2]", "value": "can reverse the massive apoptosis of the PC12 cells caused by corticosterone"}]}]}
